Experimental data reported in PubChem BioAssay (NCI).
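Here, GI50 denotes the concentration required for 50% inhibition of growth. At the TGI there is no net growth.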

Legend:
Experiment in all cases: growth of human tumour cells (NCI), 384-well format
DU-145 prostate = tested on: DU-145 prostate
MOLT-4 leukemia = tested on: MOLT-4 leukemia
NCI-H226 lung = tested on: NCI-H226 lung
SN12C renal = tested on: SN12C renal
HCC-2998 colon = tested on: HCC-2998 colon
HCT-116 colon = tested on: HCT-116 colon
LOX IMVI melanoma = tested on: LOX IMVI melanoma
SK-MEL-2 melanoma = tested on: SK-MEL-2 melanoma
UO-31 renal = tested on: UO-31 renal
CAKI-1 renal = tested on: CAKI-1 renal
UACC-62 melanoma = tested on: UACC-62 melanoma
SF-295 CNS = tested on: SF-295 CNS
T-47D breast = tested on: T-47D breast
UACC-257 melanoma = tested on: UACC-257 melanoma
NCI-H23 lung = tested on: NCI-H23 lung
EKVX NSCLC = tested on: EKVX NSCLC
MDA-MB-231 breast = tested on: MDA-MB-231 breast
RXF 393 renal = tested on: RXF 393 renal
TK-10 renal = tested on: TK-10 renal
SF-268 CNS = tested on: SF-268 CNS
RPMI-8226 leukemia = tested on: RPMI-8226 leukemia
COLO 205 colon = tested on: COLO 205 colon
M14 melanoma = tested on: M14 melanoma
A498 renal = tested on: A498 renal
BT-549 breast = tested on: BT-549 breast
SK-MEL-28 melanoma = tested on: SK-MEL-28 melanoma
NCI-H322M lung = tested on: NCI-H322M lung
OVCAR-4 ovarian = tested on: OVCAR-4 ovarian
HOP-62 NSCLC = tested on: HOP-62 NSCLC
SNB-19 CNS = tested on: SNB-19 CNS
NCI-H522 lung = tested on: NCI-H522 lung
SR leukemia = tested on: SR leukemia
786-0 renal = tested on: 786-0 renal
HS 578T breast = tested on: HS 578T breast
HT29 colon = tested on: HT29 colon
U251 glioblastoma = tested on: U251 glioblastoma
SW-620 colon = tested on: SW-620 colon
A549 NSCLC = tested on: A549 NSCLC
HCT-15 colon = tested on: HCT-15 colon
HOP-92 NSCLC = tested on: HOP-92 NSCLC
SF-539 CNS = tested on: SF-539 CNS
NCI/ADR-RES ovarian = tested on: NCI/ADR-RES ovarian
MDA-MB-468 breast = tested on: MDA-MB-468 breast
OVCAR-3 ovarian = tested on: OVCAR-3 ovarian
SK-MEL-5 melanoma = tested on: SK-MEL-5 melanoma
HL-60(TB) leukemia = tested on: HL-60(TB) leukemia
SNB-75 CNS = tested on: SNB-75 CNS
K-562 leukemia = tested on: K-562 leukemia
IGROV1 ovarian = tested on: IGROV1 ovarian
MALME-3M melanoma = tested on: MALME-3M melanoma
KM12 colon = tested on: KM12 colon
MDA-MB-435 melanoma = tested on: MDA-MB-435 melanoma
PC-3 prostate = tested on: PC-3 prostate
NCI-H460 NSCLC = tested on: NCI-H460 NSCLC
MCF7 breast = tested on: MCF7 breast
ACHN renal = tested on: ACHN renal
OVCAR-5 ovarian = tested on: OVCAR-5 ovarian
SK-OV-3 ovarian = tested on: SK-OV-3 ovarian

Structure (SMILES): O=C(c1ccc(/C=C/c2n[nH]c3ccccc23)cc1)N1CCNCC1
- GI50 (DU-145 prostate): 5.22 µM
- TGI (DU-145 prostate): 20.7 µM
- GI50 (MOLT-4 leukemia): 0.252 µM
- TGI (MOLT-4 leukemia): 1.27 µM
- GI50 (NCI-H226 lung): 1.32 µM
- TGI (NCI-H226 lung): 4.89 µM
- GI50 (SN12C renal): 1.88 µM
- TGI (SN12C renal): 10.6 µM
- GI50 (HCC-2998 colon): 11 µM
- TGI (HCC-2998 colon): 27.4 µM
- GI50 (HCT-116 colon): 1.77 µM
- TGI (HCT-116 colon): 18.6 µM
- GI50 (LOX IMVI melanoma): 2.99 µM
- TGI (LOX IMVI melanoma): 10.8 µM
- GI50 (SK-MEL-2 melanoma): 14.5 µM
- TGI (SK-MEL-2 melanoma): 27.7 µM
- GI50 (UO-31 renal): 2.69 µM
- TGI (UO-31 renal): 17.2 µM
- GI50 (CAKI-1 renal): 3.37 µM
- TGI (CAKI-1 renal): 16.4 µM
- GI50 (UACC-62 melanoma): 7.66 µM
- TGI (UACC-62 melanoma): 20.8 µM
- GI50 (SF-295 CNS): 2.12 µM
- TGI (SF-295 CNS): 17.3 µM
- GI50 (T-47D breast): 17.7 µM
- TGI (T-47D breast): 31.9 µM
- GI50 (UACC-257 melanoma): 5.94 µM
- TGI (UACC-257 melanoma): 17.8 µM
- GI50 (NCI-H23 lung): 2.69 µM
- TGI (NCI-H23 lung): 13.6 µM
- GI50 (EKVX NSCLC): 3.23 µM
- TGI (EKVX NSCLC): 14.7 µM
- GI50 (MDA-MB-231 breast): 3.41 µM
- TGI (MDA-MB-231 breast): 17.9 µM
- GI50 (RXF 393 renal): 6.96 µM
- TGI (RXF 393 renal): 19.7 µM
- GI50 (TK-10 renal): 4.91 µM
- TGI (TK-10 renal): 22.7 µM
- GI50 (SF-268 CNS): 4.18 µM
- TGI (SF-268 CNS): 19.5 µM
- GI50 (RPMI-8226 leukemia): 1.17 µM
- TGI (RPMI-8226 leukemia): 11.1 µM
- GI50 (COLO 205 colon): 0.635 µM
- TGI (COLO 205 colon): 3.89 µM
- GI50 (M14 melanoma): 4.3 µM
- TGI (M14 melanoma): 17 µM
- GI50 (A498 renal): 13.2 µM
- TGI (A498 renal): 26 µM
- GI50 (BT-549 breast): 0.597 µM
- TGI (BT-549 breast): 2.29 µM
- GI50 (SK-MEL-28 melanoma): 11.7 µM
- TGI (SK-MEL-28 melanoma): 24 µM
- GI50 (NCI-H322M lung): 11.7 µM
- TGI (NCI-H322M lung): 27.8 µM
- GI50 (OVCAR-4 ovarian): 21.7 µM
- TGI (OVCAR-4 ovarian): 37.5 µM
- GI50 (HOP-62 NSCLC): 2.32 µM
- TGI (HOP-62 NSCLC): 16.5 µM
- GI50 (SNB-19 CNS): 12.1 µM
- TGI (SNB-19 CNS): 27.7 µM
- GI50 (NCI-H522 lung): 0.529 µM
- TGI (NCI-H522 lung): 5.51 µM
- GI50 (SR leukemia): 0.18 µM
- TGI (SR leukemia): 0.32 µM
- GI50 ([…]-0 renal): 10.7 µM
- TGI (786-0 renal): 22.7 µM
- GI50 (HS 578T breast): 2.47 µM
- TGI (HS 578T breast): 7.17 µM
- GI50 (HT29 colon): 3.1 µM
- TGI (HT29 colon): 14.6 µM
- GI50 (U251 glioblastoma): 11.2 µM
- TGI (U251 glioblastoma): 23.7 µM
- GI50 (SW-620 colon): 3.1 µM
- TGI (SW-620 colon): 14.1 µM
- GI50 (A549 NSCLC): 1.96 µM
- TGI (A549 NSCLC): 19.9 µM
- GI50 (HCT-15 colon): 3.41 µM
- TGI (HCT-15 colon): 18.9 µM
- GI50 (HOP-92 NSCLC): 2.32 µM
- TGI (HOP-92 NSCLC): 11 µM
- GI50 (SF-539 CNS): 1.53 µM
- TGI (SF-539 CNS): 5.75 µM
- GI50 (NCI/ADR-RES ovarian): 13.8 µM
- TGI (NCI/ADR-RES ovarian): 26.9 µM
- GI50 (MDA-MB-468 breast): 1.07 µM
- TGI (MDA-MB-468 breast): 16.6 µM
- GI50 (OVCAR-3 ovarian): 11.6 µM
- TGI (OVCAR-3 ovarian): 24.5 µM
- GI50 (SK-MEL-5 melanoma): 5.38 µM
- TGI (SK-MEL-5 melanoma): 19.4 µM
- GI50 (HL-60(TB) leukemia): 0.416 µM
- TGI (HL-60(TB) leukemia): 15 µM
- GI50 (SNB-75 CNS): 3.4 µM
- TGI (SNB-75 CNS): 9.95 µM
- GI50 (K-562 leukemia): 0.214 µM
- TGI (K-562 leukemia): 1.08 µM
- GI50 (IGROV1 ovarian): 4.66 µM
- TGI (IGROV1 ovarian): 18.2 µM
- GI50 (MALME-3M melanoma): 2.7 µM
- TGI (MALME-3M melanoma): 10.8 µM
- GI50 (KM12 colon): 0.118 µM
- TGI (KM12 colon): 10.8 µM
- GI50 (MDA-MB-435 melanoma): 2.01 µM
- TGI (MDA-MB-435 melanoma): 13.3 µM
- GI50 (PC-3 prostate): 5.28 µM
- TGI (PC-3 prostate): 21.2 µM
- GI50 (NCI-H460 NSCLC): 0.543 µM
- TGI (NCI-H460 NSCLC): 10.9 µM
- GI50 (MCF7 breast): 2.9 µM
- TGI (MCF7 breast): 16.3 µM
- GI50 (ACHN renal): 4.29 µM
- TGI (ACHN renal): 18.3 µM
- GI50 (OVCAR-5 ovarian): 3.48 µM
- TGI (OVCAR-5 ovarian): > 100 µM
- GI50 (SK-OV-3 ovarian): 7.59 µM
- TGI (SK-OV-3 ovarian): 21 µM
